Data taken from patent publication US11230545B2, “Heterocyclic compound” (Takeda Pharmaceutical Company Limited, priority 2018, dated 2022).

Experiments:
recombinant human MALT1 = target: T1, recombinant human MALT1 (Homo sapiens, UniProt Q9UDY8); test: Measurement of MALT1 enzyme inhibitory activity; assay type: biochemical; settings: read-out: MALT1 enzyme inhibition rate (%) at 3 μM compound
T1 construct: to form a human MALT1 (340-789aa) dimer; His tag (from pET28a, N-terminal) (N); yeast GCN4 leucine zipper (251-281aa), fusion partner for dimerisation (N); translates to GSGSGS), between GCN4 zipper and MALT1 (N); His tag (C-terminal) (C); made in house; host or cells: E. coli BL21 (DE3)
T1 sequence (Q9UDY8 340-789): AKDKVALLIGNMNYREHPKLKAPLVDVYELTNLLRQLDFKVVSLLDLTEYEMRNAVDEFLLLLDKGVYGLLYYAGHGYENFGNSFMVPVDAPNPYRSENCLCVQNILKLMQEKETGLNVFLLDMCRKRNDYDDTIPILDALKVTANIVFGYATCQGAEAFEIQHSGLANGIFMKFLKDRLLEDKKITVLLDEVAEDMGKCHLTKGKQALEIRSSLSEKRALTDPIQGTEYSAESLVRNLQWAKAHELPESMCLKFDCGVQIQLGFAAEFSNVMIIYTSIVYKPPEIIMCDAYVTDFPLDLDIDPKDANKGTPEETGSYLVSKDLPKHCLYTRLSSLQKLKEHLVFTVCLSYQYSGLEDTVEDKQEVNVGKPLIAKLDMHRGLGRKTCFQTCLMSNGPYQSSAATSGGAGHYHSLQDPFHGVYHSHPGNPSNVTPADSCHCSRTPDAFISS
T1 sequence (P03069 251-281 partner limits assumed): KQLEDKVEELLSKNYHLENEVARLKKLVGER
Procedure: On the human MALT1 gene, PCR was carried out using GC-030-[…] (pENTR221/MALT1, GeneCopoeia) as a template with primers having BamH I restriction enzyme at the N-terminal and Not I restriction enzyme at the C-terminal to form a human MALT1 (340-789aa) dimer. […] Both of the obtained fragments were treated with the restriction enzymes, and inserted between Nde I and Not I of a pET28a (Novagen) vector to yield a recombinant human MALT1 protein expression vector pET28a/His-LZ-hMALT1v1 (340-789)-His. The recombinant human MALT1 protein was prepared by transforming the expression plasmid prepared as above with ECOS Competent E. coli BL21 (DE3) (Nippon Gene Co., Ltd.). Escherichia coli obtained by transformation was inoculated into 300 mL of LB medium (1% tryptone, 0.5% yeast extract, 0.5% sodium chloride, 0.01% ampicillin) and cultured at 30° C. for 16 hours. […] Furthermore, culturing was carried out for 16 hours to induce expression of human MALT1 protein. After completion of the culture, the culture solution was centrifuged at 5,000 rpm for 10 minutes. […] This crushed liquid was centrifuged (15,300×G, 30 min, TOMY MX-301), and the obtained supernatant was passed through and adsorbed to a Ni-NTA Superflow (QIAGEN) column previously equilibrated with 50 mM Tris-HCl pH 8.0, 300 mM NaCl, 5 mM DTT and 10% glycerol, followed by elution in a buffer containing 50 mM Tris-HCl pH 8.0, 300 mM NaCl, 5 mM DTT, 10% glycerol and 250 mM imidazole. […] The prepared protein was stored at -30° C., and the protein concentration was measured with a BCA Protein Assay Kit (PIERCE) using BSA as a standard. […] Subsequently, 2 μL of a purified recombinant human MALT1 enzyme solution was added, followed by incubation for 60 minutes at room temperature. To the mixture were added 2 μL of a substrate solution (75 μM Ac-LRSR-AFC (SM Biochemicals), 20 mM HEPES (Dojin Laboratories), 10 mM KCl (Wako Pure Chemical Industries, Ltd.), 1.5 mM MgCl2 (Sigma-Aldrich), 1 mM EDTA (pH 8.0) (Nippon Gene Co., Ltd.), 0.01% Triton X-100 (Sigma-Aldrich) and 1 mM DTT (Wako Pure Chemical Industries, Ltd.), followed by incubation for 60 minutes at room temperature. The fluorescence values of excitation 400 nm and emission 485 nm immediately after substrate addition and after enzymatic reaction were measured with a plate reader Envision (PerkinElmer), and the fluorescence values increased by enzymatic reaction were used for calculation of the inhibition rate (%).

OCI-Ly3 cells = test: Measurement of growth inhibitory activity using OCI-Ly3 cells; assay type: cell-based; settings: Homo sapiens, 144 h, 3 μm compound, 6 days, read-out: Cell growth inhibition rate (%) at 3 μm compound
Procedure: OCI-Ly3 cells were seeded in a cell culture medium IMDM (Fujifilm Wako Pure Chemical Corporation) containing 20% FCS (fetal calf serum, Thermo Fisher Scientific) and monothioglycerol (Fujifilm Wako Pure Chemical Corporation) so as to be at 1.25×10^3 cells/well on a 96-well plate. Cell Titer-Glo solution (Promega) was added to cells to which the test compound had not been added, followed by stirring at room temperature for 15 minutes. Subsequently, the luminescence value was measured with Envision (PerkinElmer) on the day of seeding. Cells to which the test compound dissolved in dimethyl sulfoxide (Fujifilm Wako Pure Chemical Corporation) had been added were allowed to stand in a CO2 incubator (37° C.) for 6 days. Subsequently, the luminescence value was measured in the same manner. The inhibition rate (%) of the test compound on OCI-Ly3 cell growth was calculated by the following formula. Cell growth inhibition rate (%)=(1−(Luminescent value on day 6 of test compound treatment−Luminescent value before test compound treatment)/(Luminescent value on day 6 without compound addition−Luminescent value before compound treatment))×100

| inhibition at 3 µM (recombinant human MALT1) [%] | SMILES | inhibition at 3 µM (OCI-Ly3 cells) [%] |
| --- | --- | --- |
| 99 | COC(C)c1c(NC(=O)Nc2cnc(-n3nccn3)c(C(F)(F)F)c2)cnc2ccc(=O)n(C)c12 (stereo not drawn) [Example 269, N-(4-(1-Methoxyethyl)-5-methyl-6-oxo-5,6-dihydro-1,5-naphthyridin-3-yl)-N'-(6-(2H-1,2,3-triazol-2-yl)-5-(trifluoromethyl)pyridin-3-yl)urea] | 95 |
| 101 | COCc1cnn(-c2ncc(NC(=O)Nc3cnn4cc(C)nc4c3[C@H](C)OC)cc2Cl)n1 [Example 36, (S)-N-[5-Chloro-6-(4-(methoxymethyl)-2H-1,2,3-triazol-2-yl)pyridin-3-yl)-N′-(8-(1-methoxyethyl)-2-methylimidazo[1,2-b]pyridazin-7-yl)urea] | 96 |
| 99 | COC(C)c1c(NC(=O)Nc2cnc(-n3nccn3)c(Cl)c2)cnn2cc(Cl)nc12 (stereo not drawn) [Example 133, N-(2-Chloro-8-(1-methoxyethyl)imidazo[1,2-b]pyridazin-7-yl)-N′-(5-chloro-6-(2H-1,2,3-triazol-2-yl)pyridin-3-yl)urea] | 98 |
| 108 | CO[C@@H](C)c1c(NC(=O)Nc2cnc(-n3nccn3)c(C(F)(F)F)c2)cnn2cc(C)nc12 [Example 6, (S)—N-(8-(1-Methoxyethyl)-2-methylimidazo[1,2-b]pyridazin-7-yl)-N′-(6-(2H-1,2,3-triazol-2-yl)-5-(trifluoromethyl)pyridin-3-yl)urea] | 99 |
| 99 | CO[C@@H](C)c1c(NC(=O)Nc2cc(C(F)(F)F)c(-n3nccn3)nc2C)cnc2ccc(Cl)nc12 [Example 66, (S)-N-(6-Chloro-4-(1-methoxyethyl)-1,5-naphthyridin-3-yl)-N′-(2-methyl-6-(2H-1,2,3-triazol-2-yl)-5-(trifluoromethyl)pyridin-3-yl)urea] | 100 |
| 104 | CO[C@@H](C)c1c(NC(=O)Nc2cc(C(F)(F)F)c(-n3nccn3)nc2C)cnn2cc(C)nc12 [Example 22, (S)-N-(8-(1-Methoxyethyl)-2-methylimidazo[1,2-b]pyridazin-7-yl)-N′-(2-methyl-6-(2H-1,2,3-triazol-2-yl)-5-(trifluoromethyl)pyridin-3-yl)urea] | 102 |
| 97 | COc1nccc2ncc(NC(=O)Nc3cnc(-n4nccn4)c(C(F)(F)F)c3)c(C(C)OC)c12 (stereo not drawn) [Example 255, N-(5-Methoxy-4-(1-methoxyethyl)-1,6-naphthyridin-3-yl)-N'-(6-(2H-1,2,3-triazol-2-yl)-5-(trifluoromethyl)pyridin-3-yl)urea] | 99 |
| 99 | Cc1cn2ncc(NC(=O)Nc3cnc(-n4nccn4)c(Cl)c3)c(C(C)C)c2n1 [Example 9, N-(5-Chloro-6-(2H-1,2,3-triazol-2-yl)pyridin-3-yl)-N′-(2-methyl-8-(propan-2-yl)imidazo[1,2-b]pyridazin-7-yl)urea] | 99 |
| 103 | CO[C@@H](C)c1c(NC(=O)Nc2cnc(-n3nccn3)c(C(F)F)c2)cnn2cc(C)nc12 [Example 31, (S)-N-(5-(Difluoromethyl)-6-(2H-1,2,3-triazol-2-yl)pyridin-3-yl)-N′-(8-(1-methoxyethyl)-2-methylimidazo[1,2-b]pyridazin-7-yl)urea] | 96 |
| 98 | COC(C)c1c(NC(=O)Nc2cnc(-n3nccn3)c(C(F)(F)F)c2)cnc2ccnc(C)c12 (stereo not drawn) [Example 261, N-(4-(1-Methoxyethyl)-5-methyl-1,6-naphthyridin-3-yl)-N'-(6-(2H-1,2,3-triazol-2-yl)-5-(trifluoromethyl)pyridin-3-yl)urea] | 88 |

Second part, the molecule before the results:

| SMILES | inhibition at 3 µM (recombinant human MALT1) [%] | inhibition at 3 µM (OCI-Ly3 cells) [%] |
| --- | --- | --- |
| CC(c1c(NC(=O)Nc2cnc(OC(F)F)c(Cl)c2)cnn2cc(Cl)nc12)C(F)(F)F (stereo not drawn) [Example 173, N-(5-Chloro-6-(difluoromethoxy)pyridin-3-yl)-N′-(2-chloro-8-(1,1,1-trifluoropropan-2-yl)imidazo[1,2-b]pyridazin-7-yl)urea] | 99 | 85 |
| COC(C)c1c(NC(=O)Nc2cnc(OC(F)F)c(Cl)c2)cnc2ccc(Cl)nc12 (stereo not drawn) [Example 59, N-(5-Chloro-6-(difluoromethoxy)pyridin-3-yl)-N′-(6-chloro-4-(1-methoxyethyl)-1,5-naphthyridin-3-yl)urea] | 95 | 98 |
| CO[C@@H](C)c1c(NC(=O)Nc2cnc(OC(F)F)c(C#N)c2)cnn2cc(C)nc12 [Example 5, (S)—N-(5-Cyano-6-(difluoromethoxy)pyridin-3-yl)-N′-(8-(1-methoxyethyl)-2-methylimidazo[1,2-b]pyridazin-7-yl)urea] | 99 | 93 |
| CO[C@@H](C)c1c(NC(=O)Nc2cnc(OC(F)F)c(Br)c2)cnn2cc(C)nc12 [Example 35, (S)-N-(5-Bromo-6-(difluoromethoxy)pyridin-3-yl)-N′-(8-(1-methoxyethyl)-2-methylimidazo[1,2-b]pyridazin-7-yl)urea] | 105 | 95 |
| CC(C)c1c(NC(=O)Nc2cnc(OC(F)F)c(Cl)c2)cnn2cc(Cl)nc12 [Example 8, N-(5-Chloro-6-(difluoromethoxy)pyridin-3-yl)-N′-(2-chloro-8-(propan-2-yl)imidazo[1,2-b]pyridazin-7-yl)urea] | 94 |  |
| COc1ncc(NC(=O)Nc2cnc3ccn(C)c(=O)c3c2C(C)OC)cc1Cl (stereo not drawn) [Example 270, N-(5-Chloro-6-methoxypyridin-3-yl)-N'-(4-(1-methoxyethyl)-6-methyl-5-oxo-5,6-dihydro-1,6-naphthyridin-3-yl)urea] | 94 | 40 |
| COC(C)(C)c1c(NC(=O)Nc2cnc(-n3nccn3)c(Cl)c2)cnn2cc(C)nc12 [Example 7, N-(5-Chloro-6-(2H-1,2,3-triazol-2-yl)pyridin-3-yl)-N′-(8-(2-methoxypropan-2-yl)-2-methylimidazo[1,2-b]pyridazin-7-yl)urea] | 98 | 95 |
